Experimental findings from ChEMBL document CHEMBL3271977, “Stereospecific interaction of the quaternized opiate, N-methyllevorphanol, with opiate receptors” (J Med Chem, 1976) are described below.

Active and inactive are the calls of the source. The rule behind the calls is not given here.

Test [1] can be described thus: Displacement of [3H]etorphine from opioid receptor in guinea pig brain homogenate by scintillation counting analysis. The test is classed as tissue-based, Cavia porcellus. (In general: Loss of bound radioactivity is the signal in a displacement assay; it reports binding, not function.)
The test system of test [2] is Ileum. In words: Inhibition of electrically-induced contraction of guinea pig ileum longitudinal muscle with myentric plexus up to 10^-5 M. Format: functional, tissue-based. The note with it: Cavia porcellus.
The test system of test [3] is Ileum. Put plainly: Inhibition of electrically-induced contraction of guinea pig ileum longitudinal muscle with myentric plexus at 4 X 10^-5 M. The test is classed as functional, tissue-based. Particulars: Cavia porcellus.
Test [4] relates to Ileum. In words: Inhibition of electrically-induced contraction of guinea pig ileum longitudinal muscle with myentric plexus. The note with it: Cavia porcellus. Format: functional, tissue-based.
Test [5] concerns Ileum. In words: Reduction in response of guinea pig ileum longitudinal muscle to exogenous acetylcholine. The test is classed as functional, tissue-based. Particulars: Cavia porcellus.
The subject of test [6] is Ileum. Put plainly: Stimulation of guinea pig ileum longitudinal muscle contraction relative to levorphanol. Format: functional, Cavia porcellus.
For test [7], the system named is Ileum. In words: Inhibition of electrically-induced contraction of guinea pig ileum longitudinal muscle relative to levorphanol. The test is classed as functional, Cavia porcellus.
Test [8] deals with Ileum. Put plainly: Inhibition of electrically-induced contraction of guinea pig ileum longitudinal muscle with myentric plexus in presence of naloxone. Particulars: Cavia porcellus. The test is classed as functional, tissue-based.

With `CN1CC[C@]23CCCC[C@H]2[C@H]1Cc1ccc(O)cc13` [LEVORPHANOL], in test [1], the IC50 (in general, the midpoint of a concentration-inhibition curve) was determined as 8 nM. This counts as single-digit nanomolar.
For `C[N+]1(C)CC[C@@]23CCCC[C@@H]2[C@@H]1Cc1ccc(O)cc13`, the inhibition result in the test on Ileum [2] is “inactive”. In addition, in the test on Ileum [3], the inhibition result is “Active”.
Turning to `C[N+]1(C)CC[C@]23CCCC[C@H]2[C@H]1Cc1ccc(O)cc13.[I-]`, the IC50 in test [1] came to 520 nM; with Ileum [4], 610 nM. Besides, in the test on Ileum [4], the inhibition entry was “Dose-dependent effect”. Also, the inhibition result in the test on Ileum [5] and in the test with Ileum [8] was “inactive” throughout. Further, the “fold change (FC)” value with Ileum [6] stood at 0.068; in the test on Ileum [7], 0.032.
